Tests used:
Experiment in all cases: Signal transduction (intracellular Ca++, FLIPR), functional antagonistic activity
Type in all cases: cell-based
h-NK1 = h-NK1 (Homo sapiens, UniProt P25103); settings: Ca++ peak, read-out: pIC50 h-NK1 (converted)
Procedure: (§1) This test evaluates in vitro functional NK1 antagonistic activity. For the measurements of intracellular Ca^++ concentrations the cells were grown on 96-well (black wall/transparent bottom) plates from Costar for 2 days until they reached confluence. The cells were loaded with 2 μM Fluo3 in DMEM containing 0.1% BSA and 2.5 mM probenecid for 1 h at 37° C. They were washed 3× with a Krebs buffer (140 mM NaCl, 1 mM MgCl2×6H2O, 5 mM KCl, 10 mM glucose, 5 mM HEPES; 1.25 mM CaCl2; pH 7.4) containing 2.5 mM probenecid and 0.1% BSA (Ca^++-buffer). The cells were preincubated with a concentration range of antagonists for 20 min at RT and Ca^++-signals after addition of the agonists were measured in a Fluorescence Image Plate
(§2) Reader (FLIPR from Molecular Devices, Crawley, England). The peak of the Ca^++-transient was considered as the relevant signal and the mean values of corresponding wells were analysed as described below.
(§3) The sigmoidal dose response curves were analysed by computerised curve-fitting, using the GraphPad Program. The EC50-value of a compound is the effective dose showing 50% of maximal effect. For mean curves the response to the agonist with the highest potency was normalised to 100%. For antagonist responses the IC50-value was calculated using non-linear regression.
(§4) The last colums indicates—without being limited thereto—for which action the compounds might be most suitable. Of course, since for some neurokinin receptors no data was determined, it is obvious that these compounds might be attributed to another suitable use.

h-NK2 = biological target: T1, h-NK2 (Homo sapiens, UniProt P21452); settings: Ca++ peak, read-out: pIC50 h-NK2 (converted)
T1 sequence (P21452 1-398): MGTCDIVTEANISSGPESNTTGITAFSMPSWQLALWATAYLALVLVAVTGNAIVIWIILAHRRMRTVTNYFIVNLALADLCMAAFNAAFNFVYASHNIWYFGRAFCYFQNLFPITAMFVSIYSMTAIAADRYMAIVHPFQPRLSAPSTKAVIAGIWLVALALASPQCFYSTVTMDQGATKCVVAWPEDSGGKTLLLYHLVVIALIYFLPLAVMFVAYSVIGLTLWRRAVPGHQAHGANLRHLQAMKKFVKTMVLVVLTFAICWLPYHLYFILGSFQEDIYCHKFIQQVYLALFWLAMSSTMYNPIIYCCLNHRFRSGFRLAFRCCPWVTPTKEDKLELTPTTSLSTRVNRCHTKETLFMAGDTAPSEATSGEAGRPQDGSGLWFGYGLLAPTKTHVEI
Procedure: [Worded in the source for another target; this target is reported under the same test.] as §1, §2, §3, §4

h-NK3 = biological target: T2, h-NK3 (Homo sapiens, UniProt P29371); settings: Ca++ peak, read-out: pIC50 h-NK3 (converted)
T2 sequence (P29371 1-465): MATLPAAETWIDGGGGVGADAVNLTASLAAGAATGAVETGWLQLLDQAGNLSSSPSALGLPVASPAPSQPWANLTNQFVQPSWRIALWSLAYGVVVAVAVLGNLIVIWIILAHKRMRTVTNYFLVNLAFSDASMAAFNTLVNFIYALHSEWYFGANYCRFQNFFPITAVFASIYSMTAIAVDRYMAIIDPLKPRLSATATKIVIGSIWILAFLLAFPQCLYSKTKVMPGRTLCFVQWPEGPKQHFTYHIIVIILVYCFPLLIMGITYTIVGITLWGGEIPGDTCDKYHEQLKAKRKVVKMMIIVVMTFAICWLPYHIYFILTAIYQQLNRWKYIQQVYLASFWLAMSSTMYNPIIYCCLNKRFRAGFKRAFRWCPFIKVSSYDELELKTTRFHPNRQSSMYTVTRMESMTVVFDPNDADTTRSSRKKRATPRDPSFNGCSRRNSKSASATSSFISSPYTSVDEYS
Procedure: [Worded in the source for another target; this target is reported under the same test.] as §1, §2, §3, §4

Chain of h-NK1 (P25103 whole entry): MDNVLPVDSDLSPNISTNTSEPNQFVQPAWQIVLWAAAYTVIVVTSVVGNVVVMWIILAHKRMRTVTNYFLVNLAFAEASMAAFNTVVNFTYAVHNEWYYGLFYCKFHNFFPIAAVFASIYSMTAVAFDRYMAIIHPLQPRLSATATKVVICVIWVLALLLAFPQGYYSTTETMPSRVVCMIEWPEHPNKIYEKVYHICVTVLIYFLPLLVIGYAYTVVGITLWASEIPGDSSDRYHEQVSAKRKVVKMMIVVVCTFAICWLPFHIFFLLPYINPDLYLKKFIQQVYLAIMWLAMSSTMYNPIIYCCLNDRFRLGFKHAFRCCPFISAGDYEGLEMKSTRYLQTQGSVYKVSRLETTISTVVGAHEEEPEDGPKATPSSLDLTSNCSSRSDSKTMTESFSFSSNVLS

Compound: CCOC(=O)N1CCCC(N2CCN(C3CCN(C(=O)c4cc(C(F)(F)F)cc(C(F)(F)F)c4)C(Cc4ccccc4)C3)CC2)CC1 (stereo not shown) [Compound 4]
- IC50 (h-NK1): 166 nM

Compound: O=C(c1cccc(F)c1)N1CCCC(N2CCN(C3CCN(C(=O)c4cc(C(F)(F)F)cc(C(F)(F)F)c4)C(Cc4ccccc4)C3)CC2)CC1 (stereo not shown) [Compound 6]
- IC50 (h-NK1): 158 nM
- IC50 (h-NK2): 9330 nM
- IC50 (h-NK3): 1350 nM

Compound: Cc1cc(C(=O)N2CCCC(N3CCN(C4CCN(C(=O)c5cc(C(F)(F)F)cc(C(F)(F)F)c5)C(Cc5ccccc5)C4)CC3)CC2)no1 (stereo not shown) [Compound 8]
- IC50 (h-NK1): 28.2 nM
- IC50 (h-NK3): 10000 nM

Compound: O=C(c1ccccc1)N1CCCC(N2CCN(C3CCN(C(=O)c4cc(C(F)(F)F)cc(C(F)(F)F)c4)C(Cc4ccccc4)C3)CC2)CC1 (stereo not shown) [Compound 3]
- IC50 (h-NK1): 200 nM

Compound: Cc1cccc(C(=O)N2CCCC(N3CCN(C4CCN(C(=O)c5cc(C(F)(F)F)cc(C(F)(F)F)c5)C(Cc5ccccc5)C4)CC3)CC2)c1 (stereo not shown) [Compound 9]
- IC50 (h-NK1): 302 nM

Compound: O=C(c1ccoc1)N1CCCC(N2CCN(C3CCN(C(=O)c4cc(C(F)(F)F)cc(C(F)(F)F)c4)C(Cc4ccccc4)C3)CC2)CC1 (stereo not shown) [Compound 7]
- IC50 (h-NK1): 28.8 nM
- IC50 (h-NK3): 1910 nM

Compound: O=C(c1ccc(F)c(F)c1)N1CCCC(N2CCN(C3CCN(C(=O)c4cc(C(F)(F)F)cc(C(F)(F)F)c4)C(Cc4ccccc4)C3)CC2)CC1 (stereo not shown) [Compound 5]
- IC50 (h-NK1): 148 nM

Compound: CC(C)(C)OC(=O)N1CCCC(N2CCN(C3CCN(C(=O)c4cc(C(F)(F)F)cc(C(F)(F)F)c4)C(Cc4ccccc4)C3)CC2)CC1 (stereo not shown) [Compound 1]
- IC50 (h-NK1): 32.4 nM
- IC50 (h-NK3): 10000 nM
